Laboratory results as given in ChEMBL document CHEMBL1136507, “Imidazopyrimidines, potent inhibitors of p38 MAP kinase” (Bioorg Med Chem Lett, 2003).
Calls of active or inactive are those of the source. No cut-off for these calls is given here.

What was measured:
[1] = target: Mitogen-activated protein kinase 14 (Mus musculus, UniProt P47811); assay: Inhibition of murine p38 alpha kinase
Mus musculus [2] = assay: Percentage inhibition against LPS-induced TNF-alpha production in mice at a 10 mg/kg dose; assay type: functional
MAP kinase p38 = MAP kinase p38 (Homo sapiens, UniProt O15264+Q15759+Q16539+P53778); assay: Inhibition of LPS-induced p38-related TNF-alpha production in human peripheral blood mononuclear cells; assay type: functional
Mus musculus [3] = assay: Percentage inhibition against LPS-induced TNF-alpha production in mice at a 10 mg/kg dose; Not active; assay type: functional, organism-based; parameters: dose 10 mg/kg
Mus musculus [4] = assay: Percentage inhibition against LPS-induced TNF-alpha production in mice at a 2 mg/kg dose; assay type: functional

Chain of Mitogen-activated protein kinase 14 (P47811 whole entry): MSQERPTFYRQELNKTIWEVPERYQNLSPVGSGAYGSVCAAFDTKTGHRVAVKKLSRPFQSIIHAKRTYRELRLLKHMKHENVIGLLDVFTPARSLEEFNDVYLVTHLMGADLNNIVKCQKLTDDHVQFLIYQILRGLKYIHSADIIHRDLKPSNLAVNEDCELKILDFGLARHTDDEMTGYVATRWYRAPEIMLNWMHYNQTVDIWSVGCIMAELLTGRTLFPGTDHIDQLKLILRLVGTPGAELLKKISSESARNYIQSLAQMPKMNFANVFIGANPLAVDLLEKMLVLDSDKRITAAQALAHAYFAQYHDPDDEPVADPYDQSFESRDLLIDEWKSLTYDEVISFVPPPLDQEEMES

Structure (SMILES)	IC50 [1]	IC50 (MAP kinase p38)	inhibition in vivo at 10 mg/kg (Mus musculus [2])	inhibition (Mus musculus [3])	inhibition in vivo at 2 mg/kg (Mus musculus [4])
COC[C@H](C)Nc1cc(-c2c(-c3ccccc3)nc3nc(N)ccn23)ccn1	2 nM	–	93%	–	–
CSc1nccc(-c2c(-c3ccccc3)nc3nc(N)ccn23)n1	457 nM	28 nM	23%	–	–
COc1cc(N)[nH]c2nc(-c3ccc(F)cc3)c(-c3ccncc3)c1-2	–	–	75%	–	–
Nc1ccn2c(-c3ccnc(N[C@H]4CCCc5ccccc54)c3)c(-c3ccccc3)nc2n1	8 nM	–	–	inactive	–
COc1nccc(-c2c(-c3ccccc3)nc3nc(N)ccn23)n1	210 nM	90 nM	87%	–	–
Nc1ccn2c(-c3ccncc3)c(-c3ccc(F)cc3)nc2n1	570 nM	–	97%	–	–

The next lines start with results.

IC50 [1]	IC50 (MAP kinase p38)	Structure (SMILES)	inhibition in vivo at 10 mg/kg (Mus musculus [2])	inhibition (Mus musculus [3])	inhibition in vivo at 2 mg/kg (Mus musculus [4])
8 nM	–	C[C@H](Nc1nccc(-c2c(-c3ccccc3)nc3nc(N)ccn23)n1)c1ccccc1	100%	–	83%
6 nM	6 nM	Nc1ccn2c(-c3ccnc(NCc4ccccc4)c3)c(-c3ccc(F)cc3)nc2n1	42%	–	–
1 nM	2 nM	C[C@H](Nc1cc(-c2c(-c3ccccc3)nc3nc(N)ccn23)ccn1)c1ccccc1	96%	–	34%
990 nM	304 nM	Nc1ccn2c(-c3ccncn3)c(-c3ccccc3)nc2n1	73%	–	–
37 nM	–	C[C@@H](Nc1nccc(-c2c(-c3ccccc3)nc3nc(N)ccn23)n1)c1ccccc1	66%	–	–
22 nM	–	Fc1ccc(-c2[nH]c3ccc4[nH]c(Cc5ccccc5)nc4c3c2-c2ccncc2)cc1	70%	–	–
